In patent US7749534B2, “Pharmaceutical composition comprising oxoplatin, the salts and derivatives thereof” (Riemser Arzneimittel AG, priority 2003, dated 2010):

Columns and labels:
[1] = Platinum in the kidneys after injection; format: in vivo; conditions: 20 days after injection
Description: A pharmaceutical agent comprising cis-diammoniumdichloro-trans-dihydroxoplatinum(IV) and/or its salts or derivatives incorporated in the base materials defined according to the invention enables effective treatment of tumors. […] In a particularly preferred fashion, salts are used, especially potassium, lithium, sodium, magnesium, barium, zinc, manganese, silver, copper, vanadium or calcium salts, wherein the anions can be e.g. chlorides, sulfates, phosphates, nitrates or carbonates or others. Other elements capable of forming salts are well-known to those skilled in the art, e.g. all elements from the main groups I to V of the Periodic Table of the Elements, as well as the elements from the subgroups I to VIII; all of the above-mentioned elements of the Periodic Table of the Elements can form cis-oxoplatinum salts.

10 cell lines = assay: Formazan test, mean over 10 cell lines (Table 4); format: cell-based, human; conditions: mean ±SEM over the 10 cell lines of Table 4
Method: (§1) The effect of cis-oxoplatin Ca and cis-oxoplatin was compared on 10 cell lines (Table 4).
(§2) (IC50 values specified in μg/ml; the test was performed as a formazan test).

BxPC3 Pancreas = assay: Formazan test, cis-oxoplatin vs cis-oxoplatin Ca; format: cell-based, human; conditions: Table 4, formazan test
Method: as §1, §2

Colo205 Colon = assay: Formazan test, cis-oxoplatin vs cis-oxoplatin Ca; format: cell-based, human; conditions: Table 4, formazan test
Method: as §1, §2

CaCo-2 Colon = assay: Formazan test, cis-oxoplatin vs cis-oxoplatin Ca; format: cell-based, human; conditions: Table 4, formazan test
Method: as §1, §2

CRO2B Carcinoid = assay: Formazan test, cis-oxoplatin vs cis-oxoplatin Ca; format: cell-based, human; conditions: Table 4, formazan test
Method: as §1, §2

Du145 Prostate = assay: Formazan test, cis-oxoplatin vs cis-oxoplatin Ca; format: cell-based, human; conditions: Table 4, formazan test
Method: as §1, §2

HT29 Colon = assay: Formazan test, cis-oxoplatin vs cis-oxoplatin Ca; format: cell-based, human; conditions: Table 4, formazan test
Method: as §1, §2

BT20 Breast = assay: Formazan test, cis-oxoplatin vs cis-oxoplatin Ca; format: cell-based, human; conditions: Table 4, formazan test
Method: as §1, §2

T47D Breast = assay: Formazan test, cis-oxoplatin vs cis-oxoplatin Ca; format: cell-based, human; conditions: Table 4, formazan test
Method: as §1, §2

MDA-MB-435 Breast = assay: Formazan test, cis-oxoplatin vs cis-oxoplatin Ca; format: cell-based, human; conditions: Table 4, formazan test
Method: as §1, §2

SW480 Colon = assay: Formazan test, cis-oxoplatin vs cis-oxoplatin Ca; format: cell-based, human; conditions: Table 4, formazan test
Method: as §1, §2

panel of cell lines = assay: Cytotoxic activity of TRAXO, summary over 19 cell lines; format: cell-based, human; conditions: for sensitivity of cell lines: T-47D and BxPC3
Method: trans-Oxoplatin was tested on a panel of cell lines, using double steps and an initial concentration of 40 μg/ml. As the IC50 values were not reached in most cases, cell survival at the highest concentration is indicated.
Cell lines sensitive to cis-oxoplatin, such as T-47D and BxPC3, are non-sensitive to TRAXO. The salts of the trans-oxoplatin compounds may have a different therapeutic potential and different effectiveness against particular human cancer cells, cell lines and tumors.

[2] = tested on: HT29, SW480, SK-OV4, PC3, SIM, CaCo-2, DU145 and CRO2B cells; assay: Growth inhibition, cis-oxoplatin vs sodium salt, summary over cell lines (Table 2); format: cell-based, human; conditions: CaCo-2, DU145, CRO2B
Method: (§3) Growth inhibition tests on various human cell lines show the different activities of cisplatin, cis-oxoplatin and oxaliplatin. […] The following Table illustrates the results produced with cisplatin, oxoplatin, carboplatin and oxaliplatin (the values specified are IC50 values in μg/ml, i.e., the concentration where 50% of the cells survive, nd=not determined; res=resistant=non-sensitive or IC50 value cannot be determined at a concentration of up to 40 μg/ml; IC=inhibition concentration).
The activities differ according to the cell line.

various human cell lines = assay: Growth inhibition tests, overall comparison (Table 1 panel); format: cell-based
Method: as §3

[3] = tested on: tumor rats developing both internal and external tumors; assay: Therapeutic effect of tablets, ointments and infusion solutions in tumor rats; format: in vivo
Method: In a first test series, tablets, ointments and infusion solutions were tested on various tumor rats developing both internal and external tumors. The other drugs according to the invention were tested in additional, subsequent test series. […] In a preparation of 5 mg/ml solution, the infusion solution included 5 mg of cis-oxoplatin, 9 mg of benzyl alcohol, 2 mg of Polysorbate 80, 650 mg of 70% sorbitol solution, and 500 mg of water.
The tablets were administered in the form of a feed admixture. Infusion of the infusion solution was effected according to common laboratory practice via infusion tube.
Tumor effectiveness was established by weight determination and measuring the outer areas of degenerate tissue. As a comparison, the tumor effectiveness was also tested using an infusion solution comprising oxoplatin in sodium chloride solution and by means of direct oral administration of oxoplatin and by applying oxoplatin powder placed on the tumor area on the back of the laboratory animal by means of a bandage. Furthermore, tablets comprising cis-oxoplatin and sodium hydrogen carbonate or sodium alginate were tested.

α-chymotrypsin = assay: Protease inhibition; format: biochemical; conditions: at concentrations comparable to cisplatin
Description: (§4) The pharmaceutical agents according to the invention, which can be produced using said kit, are capable of binding directly to a DNA. The cis-platinum compounds according to the invention have an octahedral configuration. Consequently, cis-oxoplatin in the meaning of the invention can form both intra- and inter-strand DNA complexes. Due to the specific structure of cis-oxoplatin, in contrast to cisplatin, the compounds of the invention form multiple bonds with DNA strands. Owing to the inter-strand-crosslinker complexes and intra-strand-crosslinker complexes, the compounds of the invention show advantageous specific cytostatic effects in anti-tumor therapy. The DNA adducts of the compounds according to the invention show higher charge of the platinum central atom and further have two additional ligands bound to this center. […] Potency and effectiveness of the inventive pharmaceutical agents comprising cis-oxo-platinum(IV) are largely independent of the form of application of the agents. The agents can be administered perorally, orally, rectally, subcutaneously, intramuscularly, intravenously and intraperitoneally.

trypsin = target: T1, trypsin (Bos taurus, UniProt P00760); assay: Protease inhibition; format: biochemical; conditions: at concentrations comparable to cisplatin
T1 construct: gene PRSS1
T1 sequence (P00760 24-246): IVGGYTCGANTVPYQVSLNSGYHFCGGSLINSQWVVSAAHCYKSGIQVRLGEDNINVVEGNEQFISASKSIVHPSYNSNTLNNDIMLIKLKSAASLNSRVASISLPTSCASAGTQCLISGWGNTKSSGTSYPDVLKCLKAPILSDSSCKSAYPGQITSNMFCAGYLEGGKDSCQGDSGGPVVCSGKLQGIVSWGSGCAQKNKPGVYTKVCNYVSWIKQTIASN
Description: as §4

Compound | level of platinum compound in the kidneys [1] | IC50 (BxPC3 Pancreas) [µg/mL] | IC50 (Colo205 Colon) [µg/mL] | IC50 (CaCo-2 Colon) [µg/mL] | IC50 (CRO2B Carcinoid) [µg/mL] | IC50 (Du145 Prostate) [µg/mL] | IC50 (HT29 Colon) [µg/mL] | IC50 (BT20 Breast) [µg/mL] | IC50 (T47D Breast) [µg/mL] | IC50 (MDA-MB-435 Breast) [µg/mL] | IC50 (SW480 Colon) [µg/mL] | sensitivity of cell lines (panel of cell lines) | further results
N.N.[Cl][Pt][Cl] [Cis-platin, cisplatin, reference compound] | approximately as high as one hour following injection |  |  |  |  |  |  |  |  |  |  |  | 
N.N.N.N.[Ca+2].[O-][Pt]([OH])([Cl])[Cl].[O-][Pt]([OH])([Cl])[Cl] [Oxoplatin Ca, cis-oxoplatin calcium salt] |  | 30.0 | 13.5 | 0.87 | 2.20 | 14.5 | 8.0 | 3.5 | 3.6 | 12.0 | 2.5 |  | IC50 (±SEM) mean value for all cell lines (10 cell lines): 9.1 ± 2.8 µg/mL
[NH2][Pt]([NH2])([OH])([OH])([Cl])[Cl] [TRAXO, trans-Oxoplatin] |  |  |  |  |  |  |  |  |  |  |  | non-sensitive | activity against cell lines (panel of cell lines; SW 620, G-292, HOS, ACHN, HL-60, WI-38): considerable activity
N.N.[Cl-].[Cl-].[OH-].[OH-].[Pt+4] [cis-Oxoplatin, cis-diammoniumdichloro-trans-dihydroxoplatinum(IV)] | largely free of said compound | 26.0 | 29.0 | 1.52 | 3.0 | 19.0 | 13.5 | 3.75 | 2.5 | 16.5 | 8.2 | sensitive | IC50 values of these cells (mean) [2]: 10.5 ± 6.4 µg/mL; activity compared with oxaliplatin and carboplatin (various human cell lines): activity similar to that of oxaliplatin, but higher activity than carboplatin; elimination [3]: rapidly eliminated; irritations in the surrounding tissue [3]: irritations in the surrounding tissue; tumor growth ([3]; no base materials): reduction of tumor growth; inhibition of proteases (α-chymotrypsin): does not inhibit; inhibition of proteases (trypsin): does not inhibit
